Source: the supplement of paper PMC10307832

Key:
Test in all cases: relative viability (nuclei count vs DMSO), 5 days (fraction); higher = more cells survive
AT9283 + Phenformin = compound: O=C(Nc1c[nH]nc1-c1nc2ccc(CN3CCOCC3)cc2[nH]1)NC1CC1 [AT9283] + N=C(N)NC(=N)NCCc1ccccc1 [Phenformin] (partner 250 µM)
Method in brief: (§1)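 Relative viability is defined as nuclei in treated wells over nuclei in vehicle wells. Duplicate plates were run and medians reported. Lung cancer cell lines in 1536-well plates were dosed by pin tool one day after seeding, with one drug or with a fixed anchor-drug dose plus five library-drug doses (not always all listed) in √10 steps, and nuclei were counted after 5 days.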

AT9283 + Lapatinib = compound: O=C(Nc1c[nH]nc1-c1nc2ccc(CN3CCOCC3)cc2[nH]1)NC1CC1 [AT9283] + CS(=O)(=O)CCNCc1ccc(-c2ccc3ncnc(Nc4ccc(OCc5cccc(F)c5)c(Cl)c4)c3c2)o1 [Lapatinib] (partner 2 µM)
Method in brief: as §1

AT9283 + Palbociclib = compound: O=C(Nc1c[nH]nc1-c1nc2ccc(CN3CCOCC3)cc2[nH]1)NC1CC1 [AT9283] + CC(=O)c1c(C)c2cnc(Nc3ccc(N4CCNCC4)cn3)nc2n(C2CCCC2)c1=O [Palbociclib] (partner 0.5 µM)
Method in brief: as §1

Erlotinib + Pictilisib = compound: C#Cc1cccc(Nc2ncnc3cc(OCCOC)c(OCCOC)cc23)c1 [Erlotinib] + CS(=O)(=O)N1CCN(Cc2cc3nc(-c4cccc5[nH]ncc45)nc(N4CCOCC4)c3s2)CC1 [Pictilisib] (partner 1 µM)
Method in brief: as §1

Erlotinib + Crizotinib = compound: C#Cc1cccc(Nc2ncnc3cc(OCCOC)c(OCCOC)cc23)c1 [Erlotinib] + C[C@@H](Oc1cc(-c2cnn(C3CCNCC3)c2)cnc1N)c1c(Cl)ccc(F)c1Cl [Crizotinib] (partner 1 µM)
Method in brief: as §1

Cell Line: NCI-H650
- relative viability (AT9283 + Phenformin; first compound 0.003 µM): 0.366
- relative viability (AT9283 + Phenformin; first compound 0.03 µM): 0.436
- relative viability (AT9283 + Phenformin; first compound 0.09487 µM): 0.223
- relative viability (AT9283 + Phenformin; first compound 0.3 µM): 0.165
- relative viability (AT9283 + Lapatinib; first compound 0.003 µM): 0.832
- relative viability (AT9283 + Lapatinib; first compound 0.03 µM): 0.842
- relative viability (AT9283 + Lapatinib; first compound 0.09487 µM): 0.252
- relative viability (AT9283 + Lapatinib; first compound 0.3 µM): 0.199
- relative viability (AT9283 + Palbociclib; first compound 0.003 µM): 0.314
- relative viability (AT9283 + Palbociclib; first compound 0.03 µM): 0.334
- relative viability (AT9283 + Palbociclib; first compound 0.09487 µM): 0.209
- relative viability (AT9283 + Palbociclib; first compound 0.3 µM): 0.122
- relative viability (Erlotinib + Pictilisib; first compound 0.02 µM): 0.963
- relative viability (Erlotinib + Pictilisib; first compound 0.2 µM): 0.942
- relative viability (Erlotinib + Pictilisib; first compound 0.6325 µM): 0.904
- relative viability (Erlotinib + Pictilisib; first compound 2 µM): 0.936
- relative viability (Erlotinib + Crizotinib; first compound 0.02 µM): 0.735
- relative viability (Erlotinib + Crizotinib; first compound 0.2 µM): 0.803
- relative viability (Erlotinib + Crizotinib; first compound 0.6325 µM): 0.903
- relative viability (Erlotinib + Crizotinib; first compound 2 µM): 0.662

Cell Line: LU99A
- relative viability (AT9283 + Phenformin; first compound 0.003 µM): 0.804
- relative viability (AT9283 + Phenformin; first compound 0.03 µM): 0.441
- relative viability (AT9283 + Phenformin; first compound 0.09487 µM): 0.17
- relative viability (AT9283 + Phenformin; first compound 0.3 µM): 0.199
- relative viability (AT9283 + Lapatinib; first compound 0.003 µM): 0.846
- relative viability (AT9283 + Lapatinib; first compound 0.03 µM): 0.357
- relative viability (AT9283 + Lapatinib; first compound 0.09487 µM): 0.188
- relative viability (AT9283 + Lapatinib; first compound 0.3 µM): 0.207
- relative viability (AT9283 + Palbociclib; first compound 0.003 µM): 0.358
- relative viability (AT9283 + Palbociclib; first compound 0.03 µM): 0.226
- relative viability (AT9283 + Palbociclib; first compound 0.09487 µM): 0.14
- relative viability (AT9283 + Palbociclib; first compound 0.3 µM): 0.139
- relative viability (Erlotinib + Pictilisib; first compound 0.02 µM): 0.302
- relative viability (Erlotinib + Pictilisib; first compound 0.2 µM): 0.31
- relative viability (Erlotinib + Pictilisib; first compound 0.6325 µM): 0.347
- relative viability (Erlotinib + Pictilisib; first compound 2 µM): 0.281
- relative viability (Erlotinib + Crizotinib; first compound 0.02 µM): 0.612
- relative viability (Erlotinib + Crizotinib; first compound 0.2 µM): 0.607
- relative viability (Erlotinib + Crizotinib; first compound 0.6325 µM): 0.64
- relative viability (Erlotinib + Crizotinib; first compound 2 µM): 0.432

Cell Line: EKVX
- relative viability (AT9283 + Phenformin; first compound 0.003 µM): 0.237
- relative viability (AT9283 + Phenformin; first compound 0.03 µM): 0.223
- relative viability (AT9283 + Phenformin; first compound 0.09487 µM): 0.212
- relative viability (AT9283 + Phenformin; first compound 0.3 µM): 0.196
- relative viability (AT9283 + Lapatinib; first compound 0.003 µM): 0.241
- relative viability (AT9283 + Lapatinib; first compound 0.03 µM): 0.188
- relative viability (AT9283 + Lapatinib; first compound 0.09487 µM): 0.128
- relative viability (AT9283 + Lapatinib; first compound 0.3 µM): 0.108
- relative viability (AT9283 + Palbociclib; first compound 0.003 µM): 0.387
- relative viability (AT9283 + Palbociclib; first compound 0.03 µM): 0.368
- relative viability (AT9283 + Palbociclib; first compound 0.09487 µM): 0.274
- relative viability (AT9283 + Palbociclib; first compound 0.3 µM): 0.179
- relative viability (Erlotinib + Pictilisib; first compound 0.02 µM): 0.405
- relative viability (Erlotinib + Pictilisib; first compound 0.2 µM): 0.217
- relative viability (Erlotinib + Pictilisib; first compound 0.6325 µM): 0.191
- relative viability (Erlotinib + Pictilisib; first compound 2 µM): 0.109
- relative viability (Erlotinib + Crizotinib; first compound 0.02 µM): 1.04
- relative viability (Erlotinib + Crizotinib; first compound 0.2 µM): 0.457
- relative viability (Erlotinib + Crizotinib; first compound 0.6325 µM): 0.287
- relative viability (Erlotinib + Crizotinib; first compound 2 µM): 0.147

Cell Line: NCI-H2087
- relative viability (AT9283 + Phenformin; first compound 0.003 µM): 0.458
- relative viability (AT9283 + Phenformin; first compound 0.03 µM): 0.251
- relative viability (AT9283 + Phenformin; first compound 0.09487 µM): 0.111
- relative viability (AT9283 + Phenformin; first compound 0.3 µM): 0.118
- relative viability (AT9283 + Lapatinib; first compound 0.003 µM): 0.894
- relative viability (AT9283 + Lapatinib; first compound 0.03 µM): 0.269
- relative viability (AT9283 + Lapatinib; first compound 0.09487 µM): 0.222
- relative viability (AT9283 + Lapatinib; first compound 0.3 µM): 0.186
- relative viability (AT9283 + Palbociclib; first compound 0.003 µM): 0.218
- relative viability (AT9283 + Palbociclib; first compound 0.03 µM): 0.234
- relative viability (AT9283 + Palbociclib; first compound 0.09487 µM): 0.117
- relative viability (AT9283 + Palbociclib; first compound 0.3 µM): 0.121
- relative viability (Erlotinib + Pictilisib; first compound 0.02 µM): 0.842
- relative viability (Erlotinib + Pictilisib; first compound 0.2 µM): 0.844
- relative viability (Erlotinib + Pictilisib; first compound 0.6325 µM): 0.932
- relative viability (Erlotinib + Crizotinib; first compound 0.02 µM): 0.882
- relative viability (Erlotinib + Crizotinib; first compound 0.2 µM): 1.06
- relative viability (Erlotinib + Crizotinib; first compound 0.6325 µM): 0.871
- relative viability (Erlotinib + Crizotinib; first compound 2 µM): 0.849

Cell Line: HCC-827
- relative viability (AT9283 + Phenformin; first compound 0.003 µM): 0.399
- relative viability (AT9283 + Phenformin; first compound 0.03 µM): 0.352
- relative viability (AT9283 + Phenformin; first compound 0.09487 µM): 0.356
- relative viability (AT9283 + Phenformin; first compound 0.3 µM): 0.196
- relative viability (AT9283 + Lapatinib; first compound 0.003 µM): 0.195
- relative viability (AT9283 + Lapatinib; first compound 0.03 µM): 0.216
- relative viability (AT9283 + Lapatinib; first compound 0.09487 µM): 0.191
- relative viability (AT9283 + Lapatinib; first compound 0.3 µM): 0.164
- relative viability (AT9283 + Palbociclib; first compound 0.003 µM): 0.478
- relative viability (AT9283 + Palbociclib; first compound 0.03 µM): 0.428
- relative viability (AT9283 + Palbociclib; first compound 0.09487 µM): 0.272
- relative viability (AT9283 + Palbociclib; first compound 0.3 µM): 0.174
- relative viability (Erlotinib + Pictilisib; first compound 0.02 µM): 0.374
- relative viability (Erlotinib + Pictilisib; first compound 0.2 µM): 0.241
- relative viability (Erlotinib + Pictilisib; first compound 0.6325 µM): 0.273
- relative viability (Erlotinib + Pictilisib; first compound 2 µM): 0.329
- relative viability (Erlotinib + Crizotinib; first compound 0.02 µM): 0.371
- relative viability (Erlotinib + Crizotinib; first compound 0.2 µM): 0.195
- relative viability (Erlotinib + Crizotinib; first compound 0.6325 µM): 0.174
- relative viability (Erlotinib + Crizotinib; first compound 2 µM): 0.177
